Earlier results on 45 compounds are cited in patent US20040121305A1, “Generation of efficacy, toxicity and disease signatures and methods of use thereof” (priority 2002, published 2004).

For the data set the following is noted: known toxins to be used for toxicity signature generation; organs known to be targeted.
On to `Clc1cc(Cl)c(-c2cc(Cl)c(Cl)cc2Cl)cc1Cl` [2,2′,4,4′,5,5′-hexachlorobiphenyl], for which the Target organ/organ system result is recorded as “liver”. As to `Clc1cc2c(cc1Cl)Oc1cc(Cl)c(Cl)cc1O2` [2,3,7,8-tetrachlorodibenzo-p-dioxin], the Target organ/organ system result is recorded as “liver”. On to `NCCBr` [2-bromoethylamine (BEA), 2-bromoethylamine], for which the Target organ/organ system entry was “kidney”.

On to `Cc1ccc2cc3c(ccc4ccccc43)c3c2c1CC3` [3-methylcholanthrene], for which the Target organ/organ system result is listed as “liver”. Regarding `Nc1ccc(O)cc1` [4-aminophenol (PAP), 4-aminophenol], the Target organ/organ system result is reported as “kidney”. Consider `Cc1cccc(Nc2cc(Cl)nc(SCC(=O)O)n2)c1C` [Wy-16,463], for which the Target organ/organ system result is listed as “liver”. For the compound `CC(=O)Nc1ccc(O)cc1` [acetaminophen], the Target organ/organ system result is given as “kidney”. Consider `C=CCO` [allyl alcohol], for which the Target organ/organ system result was “liver”.

With `C[C@@H]1[C@H](O)[C@@H](C)/C=C/C=C/C=C/C=C/C=C/C=C/C=C/[C@H](O[C@@H]2O[C@H](C)[C@@H](O)[C@H](N)[C@@H]2O)C[C@@H]2O[C@](O)(C[C@@H](O)C[C@@H](O)[C@H](O)CC[C@@H](O)C[C@@H](O)CC(=O)O[C@H]1C)C[C@H](O)[C@H]2C(=O)O` [amphotericin B], the Target organ/organ system result was “blood; cardiovascular system; kidney; liver”. `[AsH3]` [arsenic]: the Target organ/organ system result is recorded as “liver”. In the case of `CC(=O)Oc1ccccc1C(=O)O` [aspirin], the Target organ/organ system result is recorded as “cardiovascular system; kidney”. Regarding `COc1ccc(CCN2CCC(Nc3nc4ccccc4n3Cc3ccc(F)cc3)CC2)cc1` [astemizole], the Target organ/organ system result was “cardiovascular system”.

In the case of `c1ccccc1` [benzene], the Target organ/organ system result is recorded as “blood”.

Regarding `[Cd]` [cadmium], the Target organ/organ system result is reported as “kidney; liver; nervous system; respiratory system”. With `NC(=O)N1c2ccccc2C=Cc2ccccc21` [carbamezipine], the Target organ/organ system entry is listed as “blood; liver; reproductive system”.

For the compound `CC(C)(Oc1ccc(C2CC2(Cl)Cl)cc1)C(=O)O` (stereo not drawn) [ciprofibrate (cipro), ciprofibrate], the Target organ/organ system entry was “liver”. Consider `CCOC(=O)C(C)(C)Oc1ccc(Cl)cc1` [clofibrate], for which the Target organ/organ system entry was “muscle”. Consider `[Cl][Co][Cl]` [cobalt chloride], for which the Target organ/organ system result is “liver”. Turning to `CCN(CC)N=O` [diethylntrosamine], the Target organ/organ system result was “liver”. For the compound `CNNC` [dimethylhydrazine (DMH), dimethylhydrazine], the Target organ/organ system result was “liver”.

On to `Cc1ccc(C)c(OCCCC(C)(C)C(=O)O)c1` [gamfibrozil], for which the Target organ/organ system entry is “muscle”. As for `Nc1nc(O)c2ncn(COC(CO)CO)c2n1` [ganciclovir], the Target organ/organ system result was “blood; liver”. Regarding `ClC(Cl)=C(Cl)C(Cl)=C(Cl)Cl` [hexachloro-1,3-butediene (HCBD), hexachloro-1,3-butediene], the Target organ/organ system result is reported as “kidney”.

`NN` [hydrazine]: the Target organ/organ system entry is recorded as “liver”. Regarding `CC(=O)[O-].CC(=O)[O-].[Pb+2]` [lead acetate (PbAc), lead acetate], the Target organ/organ system result is on record as “liver, kidney”. In the case of `[Cl][Hg][Cl]` [mercury(II) chloride (HgCl2), mercury(II) chloride], the Target organ/organ system result is reported as “kidney”.

As for `CN(C)CCN(Cc1cccs1)c1ccccn1` [methapyrilene], the Target organ/organ system result is recorded as “liver”. As for `CN(Cc1cnc2nc(N)nc(N)c2n1)c1ccc(C(=O)N[C@@H](CCC(=O)O)C(=O)O)cc1` [methotrexate], the Target organ/organ system result is given as “liver”.

On to `[N]=O` [nitric oxide], for which the Target organ/organ system result is “respiratory system; cardiovascular”. As to `Cc1nccn1CC1CCc2c(c3ccccc3n2C)C1=O` (stereo not drawn) [ondansetron], the Target organ/organ system entry is listed as “liver”.

Consider `NNc1ccccc1` [phenylhydrazine (phenylhyrzn), phenylhydrazine], for which the Target organ/organ system entry was “liver”. On to `CC[C@H](C)C(=O)O[C@H]1C[C@H](O)C=C2C=C[C@H](C)[C@H](CC[C@@H](O)C[C@@H](O)CC(=O)O)[C@H]21` [pravastatin], for which the Target organ/organ system result is reported as “cardiovascular system; liver”. As for `COc1cc(N)c(Cl)cc1C(=O)NC1CCN(CCCOc2ccc(F)cc2)CC1OC` (stereo not drawn) [propulsid], the Target organ/organ system result was “cardiovascular system”. With `CN(C)c1ncnc2c1ncn2[C@@H]1O[C@H](CO)[C@@H](N)[C@H]1O` [puromycin aminonucleoside (PAN), puromycin aminonucleoside], the Target organ/organ system entry is recorded as “liver; kidney”. For `[F-].[Na+]` [sodium fluoride (NaF), sodium fluoride], the Target organ/organ system entry is “liver”. With `CC(=N)S` [thioacetamide], the Target organ/organ system entry is recorded as “liver; kidney”. Consider `Cc1cccc(C)c1NC(=O)C(C)N` (stereo not drawn) [tocainidine], for which the Target organ/organ system result is “cardiovascular system”.

Take `Cc1c(C)c2c(c(C)c1O)CCC(C)(COc1ccc(CC3SC(=O)NC3=O)cc1)O2` (stereo not drawn) [troglitazone]: the Target organ/organ system result is “liver”.

On to `CCCC(CCC)C(=O)O` [valproic acid], for which the Target organ/organ system entry is recorded as “reproductive system”. Regarding `CC[C@]1(O)C[C@H]2CN(CCc3c([nH]c4ccccc34)[C@@](C(=O)OC)(c3cc4c(cc3OC)N(C=O)[C@H]3[C@@](O)(C(=O)OC)[C@H](OC(C)=O)[C@]5(CC)C=CCN6CC[C@]43[C@@H]65)C2)C1` [vincristine], the Target organ/organ system result is listed as “nervous system; cardiovascular system; reproductive”. Consider `Cc1cn([C@H]2C[C@H](N=[N+]=[N-])[C@@H](CO)O2)c(=O)[nH]c1=O` [zidovudine (AZT), zidovudine], for which the Target organ/organ system result was “blood; liver”. Turning to `S=C=Nc1cccc2ccccc12` [α-naphthyl isothiocyanate (ANIT), α-naphthyl isothiocyanate], the Target organ/organ system result is recorded as “liver”.

`O=c1cc(-c2ccccc2)oc2ccc3ccccc3c12` [β-naphthoflavone (BNF), β-naphthoflavone]: the Target organ/organ system entry was “liver”. As to corvastatin, the Target organ/organ system entry is recorded as “cardiovascular system; liver”. For “interleukin-6 (IL-6): interleukin-6, listed as a known toxin targeting the liver”, the Target organ/organ system result was “liver”.
